Data taken from patent US9944600B2, “Piperidine derivatives for GPR119 agonist” (CHONG KUN DANG PHARMACEUTICAL CORP., priority 2012, dated 2018).

Key:
GPR 119 Receptor = target: T1, GPR 119 Receptor (Mus musculus, UniProt Q7TQP3); test: Glucose tolerance test in normal mouse (animal test of activity for the GPR 119 receptor); format: in vivo; settings: normal male C57/6J Jms mice; for Decrease % of AUC at 10 mg/kg: oral glucose 2 g/kg, whole blood glucose AUC; for Decrease % of AUC (drop effect in blood glucose level): 10 mg/kg, oral 20% glucose 2 g/kg, whole blood glucose cAUC
T1 construct: from tissue; host or cells: whole animal: male C57/6J Jms mice (normal) or diet induced obesity C57BL/6J mice
T1 sequence (Q7TQP3 1-335): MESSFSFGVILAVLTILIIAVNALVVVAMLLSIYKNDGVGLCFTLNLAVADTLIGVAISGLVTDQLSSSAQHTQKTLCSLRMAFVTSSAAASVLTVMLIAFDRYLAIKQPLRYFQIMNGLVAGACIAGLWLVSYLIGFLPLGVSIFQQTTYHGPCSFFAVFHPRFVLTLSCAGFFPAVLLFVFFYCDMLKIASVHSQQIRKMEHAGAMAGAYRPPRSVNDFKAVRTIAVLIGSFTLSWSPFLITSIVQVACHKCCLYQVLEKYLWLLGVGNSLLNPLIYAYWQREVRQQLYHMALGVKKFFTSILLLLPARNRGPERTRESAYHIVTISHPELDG
Description: Male C57/6J Jms mice of 6-7 weeks of age were fasted for 16 hours before the start of glucose tolerance test. The experimental animal groups consist of: • A. a vehicle group (10% EtOH, 20% HPBCD in saline), • B. a positive control group administered with MBX-2982 (10 mg/kg), and • C. test groups administered with compound 516, 581, 586, 612, 640, 644 or etc. (10 mg/kg).
Before compound administration, that is, at 0 hour, whole blood glucose level was determined using a Glucometer (ACCU-CHEK, Roche). At 30 minutes after compound administration, whole blood glucose level was determined once again, and 20% glucose (2 g/kg/10 mL) was administered orally. Whole blood glucose level was determined at 20, 40, 60, 80, and 120 minutes after 20% glucose administration. Area under the curve (AUC) of whole blood glucose level was obtained using GraphPad Prism 5.0. The effect of glucose tolerance was adjudged with the corrected area under the curve (cAUC), on which the base value of glucose area under the curve was excluded.

human GPR119 receptor = target: T2, human GPR119 receptor (Homo sapiens, UniProt Q8TDV5); test: Activity test for human GPR119 receptor (GeneBLAzer T-Rex GPR 119 CHO-K1 DA cells, fluorescence reporter); format: cell-based; settings: 5 hours treatment; for activity at 0.1 µM / activity at 1 µM / activity at 10 µM: read-out: % Activation
T2 construct: host or cells: GeneBLAzer T-Rex GPR 119 CHO-K1 DA cells (CHO-K1)
T2 sequence (Q8TDV5 1-335): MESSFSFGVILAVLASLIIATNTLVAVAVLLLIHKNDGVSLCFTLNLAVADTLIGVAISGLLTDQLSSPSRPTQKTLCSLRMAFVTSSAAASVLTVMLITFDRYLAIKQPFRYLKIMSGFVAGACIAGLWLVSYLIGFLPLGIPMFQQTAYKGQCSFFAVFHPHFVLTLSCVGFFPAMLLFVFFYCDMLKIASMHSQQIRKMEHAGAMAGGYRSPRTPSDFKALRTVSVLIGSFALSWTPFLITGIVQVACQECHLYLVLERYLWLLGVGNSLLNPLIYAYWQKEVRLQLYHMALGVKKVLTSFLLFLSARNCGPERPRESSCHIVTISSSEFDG
Description: As a human GPR119 receptor expression cell for this test, the cell line “GeneBLAzer™ T-Rex GPR 119 CHO-K1 DA cells” that is commercially available from Invitrogen, was used. The cell was incubated in the DMEM media containing 1% dialyzed fetal bovine serum etc. The cell incubator was kept at constant temperature and constant humidity of 37° C., 5% CO2.
The human GPR119 receptor expressing cell was used to this test. Each of test compounds was added to be final concentrations of 0.1, 1, 10 μM in 96 well and tested in duplicate. A fixed amount of cell was added to each well of 96 well separately, and then treated with the test compound for 5 hours. After treatment of color development agent for 2 hours, the fluorescence value was determined with plate reader. To the luminous wavelength of control well, which was not treated with the agonist sample, but in which only a vehicle (i.e., cell) was contained, the ratio of the luminous wavelength of test well, which was treated with the agonist sample, was calculated, and then converted to obtain % value.
All the results were expressed as mean±SD, and each test groups and the control group were compared using student's t-test to adjudge the effects of each test groups.

[1] = test compound conc. 0.1 μM, human GPR119 CHO-K1 reporter cells, ratio to vehicle control well
[2] = test compound conc. 1 μM, human GPR119 CHO-K1 reporter cells, ratio to vehicle control well
[3] = test compound conc. 10 μM, human GPR119 CHO-K1 reporter cells, ratio to vehicle control well
[4] = human GPR119 receptor expressing cell, test concentrations 0.1, 1, 10 μM (concentration not given)

SMILES | activity at 0.1 µM (human GPR119 receptor; [1]) [%] | activity at 1 µM (human GPR119 receptor; [2]) [%] | activity at 10 µM (human GPR119 receptor; [3]) [%] | % Activation (human GPR119 receptor; [4]) [%] | maximum % activation (human GPR119 receptor; human GPR119 receptor expressing cell, test concentrations 0.1, 1, 10 μM, ratio to vehicle control well) [%] | % Activation (human GPR119 receptor; [1]) [%] | % Activation (human GPR119 receptor; [2]) [%] | % Activation (human GPR119 receptor; [3]) [%] | Decrease % of AUC at 10 mg/kg (GPR 119 Receptor) [%] | Decrease % of AUC (drop effect in blood glucose level) (GPR 119 Receptor) [%]
CN(C)C(=O)c1ccc(-c2ccc(OCC3CCN(CC(C)(C)F)CC3)cc2)cc1 [Compound 516, 4′-((1-(2-fluoro-2-methylpropyl)piperidin-4-yl)methoxy)-N,N-dimethylbiphenyl-4-carboxamide] | 185 | 243 | 289 |  |  |  |  |  | 43 | 
NC(=O)[C@@H]1CCCN1C(=O)c1ccc(-c2ccc(OCC3CCN(CC4(C(F)(F)F)CCC4)CC3)nc2)cc1 [Compound 581, (S)-1-(4-(6-((1-((1-(trifluoromethyl)cyclobutyl)methyl)piperidin-4-yl)methoxy)pyridine-3-yl)benzoyl)pyrrolidine-2-carboxamide] | 254 | 344 | 273 |  |  |  |  |  | 50 | 
NC(=O)[C@@H]1CCCN1C(=O)c1ccc(-c2ccc(OCC3CCN(CC4(C(F)(F)F)CC4)CC3)nc2)cc1 [Compound 586, (S)-1-(4-(6-((1-((1-(trifluoromethyl)cyclopropyl)methyl)piperidin-4-yl)methoxy)pyridine-3-yl)benzoyl)pyrrolidine-2-carboxamide] | 213 | 310 | 379 |  |  |  |  |  | 34 | 
CC(C)(F)CN1CCC(COc2ccc(-c3ccc(C(=O)N4CCC[C@@H](O)C4)cc3)cc2)CC1 [Compound 612, (R)-(4′-((1-(2-fluoro-2-methylpropyl)piperidin-4-yl)methoxy)biphenyl-4-yl)(3-hydroxypiperidin-1-yl)methanone] |  |  |  |  |  |  |  |  | 50 | 50
CC(C)(F)CN1CCC(COc2ccc(-c3ccc(C(=O)N4CC[C@H](O)C4)c(F)c3)cc2)CC1 [Compound 640, (S)-(3-fluoro-4′-((1-(2-fluoro-2-methylpropyl)piperidin-4-yl)methoxy)biphenyl-4-yl)(3-hydroxypyrrolidine-1-yl)methanone] |  |  |  |  |  |  |  |  | 52 | 
O=C(c1ccc(-c2cnc(OCC3CCN(CC4(C(F)(F)F)CCC4)CC3)cn2)cc1F)N1CCC[C@@H](O)C1 [Compound 1013, (R)-(2-fluoro-4-(5-((1-((1-(trifluoromethyl)cyclobutyl)methyl)piperidin-4-yl)methoxy)pyrazine-2-yl)phenyl)(3-hydroxypiperidin-1-yl)methanone] | 410 | 490 | 426 | 490 |  |  |  |  |  | 
CCc1cnc(N2CCC(c3nc(COc4ccc(-n5cnnn5)cc4)cs3)CC2)nc1 [MBX-2982, reference compound] |  |  |  |  | 200 | 180 | 206 | 200 | 24 | 24

More lines, main results first:

activity at 0.1 µM (human GPR119 receptor; [1]) [%] | activity at 1 µM (human GPR119 receptor; [2]) [%] | activity at 10 µM (human GPR119 receptor; [3]) [%] | % Activation (human GPR119 receptor; [4]) [%] | maximum % activation (human GPR119 receptor; human GPR119 receptor expressing cell, test concentrations 0.1, 1, 10 μM, ratio to vehicle control well) [%] | % Activation (human GPR119 receptor; [1]) [%] | % Activation (human GPR119 receptor; [2]) [%] | % Activation (human GPR119 receptor; [3]) [%] | SMILES | Decrease % of AUC at 10 mg/kg (GPR 119 Receptor) [%] | Decrease % of AUC (drop effect in blood glucose level) (GPR 119 Receptor) [%]
289 | 248 | 311 |  |  |  |  |  | CC(C)(F)CN1CCC(COc2ccc(-c3ccc(C(=O)N4CCC[C@H]4C(N)=O)c(F)c3)cn2)CC1 [Compound 658, (S)-1-(2-fluoro-4-(6-((1-(2-fluoro-2-methylpropyl)piperidin-4-yl)methoxy)pyridine-3-yl)benzoyl)pyrrolidine-2-carboxamide] | 38 | 
162 | 260 | 313 |  |  |  |  |  | CC(C)(F)CN1CCC(COc2ccc(-c3ccc(C(=O)N4CC[C@@H](O)C4)c(F)c3)nc2)CC1 [Compound 768, (R)-(2-fluoro-4-(5-((1-(2-fluoro-2-methylpropyl)piperidin-4-yl)methoxy)pyridine-2-yl)phenyl)(3-hydroxypyrrolidine-1-yl)methanone] | 40 | 
180 | 291 | 310 |  |  |  |  |  | CC(C)(F)CN1CCC(COc2cnc(-c3ccc(C(=O)N4CCC[C@H]4C(N)=O)c(F)c3)cn2)CC1 [Compound 944, (S)-1-(2-fluoro-4-(5-((1-(2-fluoro-2-methylpropyl)piperidin-4-yl)methoxy)pyrazine-2-yl)benzoyl)pyrrolidine-2-carboxamide] | 32 | 
191 | 232 | 307 |  |  |  |  |  | CC(C)(F)CN1CCC(COc2cnc(-c3ccc(C(=O)N4CCC[C@H]4C(N)=O)cc3)cn2)CC1 [Compound 950, (S)-1-(4-(5-((1-(2-fluoro-2-methylpropyl)piperidin-4-yl)methoxy)pyrazine-2-yl)benzoyl)pyrrolidine-2-carboxamide] | 39 | 
187 | 348 | 402 | 402 |  |  |  |  | CC(C)(F)CN1CCC(COc2ccc(-c3ccc(C(=O)N4CCC[C@H]4C(N)=O)c(F)c3)c(C#N)c2)CC1 [Compound 1028] |  | 
321 | 459 | 430 |  |  |  |  |  | CC(C)(F)CN1CCC(COc2cnc(-c3ccc(C(=O)N4CCC[C@H]4C(N)=O)c(F)c3)nc2)CC1 [Compound 1032, (S)-1-(2-fluoro-4-(5-((1-(2-fluoro-2-methylpropyl)piperidin-4-yl)methoxy)pyrimidin-2-yl)benzoyl)pyrrolidine-2-carboxamide] | 31 | 
223 | 478 | 439 |  |  |  |  |  | CC(C)(F)CN1CCC(COc2cnc(-c3ccc(C(=O)N4CCCC[C@@H]4C(N)=O)c(F)c3)nc2)CC1 [Compound 1037, (R)-1-(2-fluoro-4-(5-((1-(2-fluoro-2-methylpropyl)piperidin-4-yl)methoxy)pyrimidin-2-yl)benzoyl)piperidin-2-carboxamide] | 42 | 
407 | 474 | 408 |  |  |  |  |  | CCC(F)(CC)CN1CCC(COc2cnc(-c3ccc(C(=O)N4CCCC[C@@H]4C(N)=O)c(F)c3)nc2)CC1 [Compound 1055, (R)-1-(4-(5-((1-(2-ethyl-2-fluorobutyl)piperidin-4-yl)methoxy)pyrimidin-2-yl)-2-fluorobenzoyl)piperidine-2-carboxamide] |  | 
406 | 428 | 482 |  |  |  |  |  | CCC(F)(CC)CN1CCC(COc2ccc(-c3ccc(C(=O)N4CCC[C@H]4C(N)=O)cc3F)cc2C#N)CC1 [Compound 1119, (S)-1-(3′-cyano-4′-((1-(2-ethyl-2-fluorobutyl)piperidin-4-yl)methoxy)-2-fluorobiphenylcarbonyl)pyrrolidine-2-carboxamide] |  | 
